Measured values: patent EP0285287A2, “3-Benzazepine compounds for use in treating gastrointestinal motility disorders” (SMITHKLINE BECKMAN CORPORATION, priority 1987, dated 1988)
Like-named read-outs stand apart in the source and are kept apart here.

Tested on: lower esophageal sphincter (LES)
Experiment: Determination of LES pressure in the anesthetized dog
Assay type: in vivo, dogs
Details: Canis lupus familiaris, mean ED20 = dose which increases LES pressure 20 mm Hg (N>=3)
Method: Methods for Determination of LES Pressure in the Anesthetized Dog
Mongrel or beagle dogs, male and female, are anesthetized using sodium pentobarbital (35.0 mg/kg., i.v.). Sodium pentobarbital is then continuously infused (approximately 6.0 mg/kg/hr) to maintain deep anesthesia. Blood pressure is monitored via a catheter surgically implanted into the femoral artery and attached to a Gould-Statham P23ID transducer. A catheter is also implanted into the femoral vein to administer test drugs. Respiration is maintained by an endotracheal tube attached to a respirator. A continuously perfused manometric catheter system including a Dent sleeve to measure sphincter pressure (Dent, Gastroenterology 71:263-267, 1976) is inserted into the esophagus and positioned so that intraluminal pressure is recorded from the body of the esophagus, the lower esophageal sphincter (LES) and the fundus of the stomach. The Dent sleeve catheter is perfused at a rate of 0.5 ml of water per minute for each lumen of the catheter by using an Arndorfer Hydraulic Capillary Infusion System. A cannula is implanted into the gastric antrum to allow drainage of the perfusate solution and prevent intestinal distension. Continuous tracings of esophageal, LES and fundus pressure are monitored on a Grass Polygraph (Model 7D). Correct positioning of the Dent sleeve is verified by noting a high pressure zone at the LES and by administration of an intravenous dose of 5-HT (usually 10-15 mcg/kg) which contracts the LES while having little or no recordable effect on either the body of the esophagus or the fundus. After verification of placement of the sleeve, the animal is allowed to stabilize for approximately 30 minutes.
Compounds are administered intravenously or intraduodenally. In most cases, succeeding doses of the same or different compounds are given only after the LES pressure has returned to approximate pre-dosing baseline values. In all cases, the magnitude of change in LES pressure is determined from the baseline pressure immediately prior to each treatment to the maximum pressure during treatment. Since the compounds used usually produce an immediate effect on LES pressure, no pretreatment time prior to measurement is necessary during this testing.
Direct assay techniques are used to estimate an Effective Dose 20 (ED₂₀) for the test compound in individual animals. The mean ED₂₀ and 95% confidence limits are determined using the individual ED₂₀ values from a group of animals (N= ≧3) that received the same treatment. The ED₂₀ is the dose which increases LES pressure 20 mm Hg.

[1] = intraduodenal, read-out: ED20 in mcg/kg i.d.
[2] = intravenous, read-out: ED20 in mcg/kg i.v.

Row | SMILES | ED (20 mm Hg) [1] | ED (20 mm Hg) [2]
1 | CN1CCc2ccc(O)c(Sc3ccccc3)c2CC1 [Compound 1, 7-hydroxy-3-methyl-6-phenylthio-2,3 4,5-tetrahydro-1H-3-benzazepine] | 263 µg/kg | 63 µg/kg
2 | CN1CCc2cc(O)c(Sc3ccccc3)cc2CC1 [Compound 2, 8-hydroxy-3-methyl-7-phenylthio-2,3 4,5-tetrahydro-1H-3-benzazepine] | ~1000 µg/kg | 14 µg/kg
3 | CSc1ccc2c(c1)CCN(C)CC2 [Compound 3, 3-methyl-7-methylthio-2,3,4,5-tetra-hydro-1H-3-benzazepine] | 236 µg/kg | 273 µg/kg
4 | Oc1ccc2c(c1)CCNCC2 [Compound 4, 7-hydroxy-2,3,4,5-tetrahydro-1H-3-benzazepine] |  | 348 µg/kg
5 | CN1CCc2cc(Sc3ccccc3)c([N+](=O)[O-])cc2CC1 [Compound 5, 3-methyl-7-nitro-8-phenylthio-2,3,4,5-tetrahydro-1H-3-benzazepine] |  | 1200 µg/kg
